According to US5710124A, “Method for combatting bovine mastitis” (Novartis Corporation, priority 1993, dated 1998):
Ends that are not written are not given here.

What was measured:
[1] = system: Staphylococcus aureus Newbold 305; assay: Effect on S. aureus in milk (cfu, percent survival); format: cell-based; settings: for % survival: 37° C. 30 min
Method: Effect of Gallidermin on […] in milk Staphylococcus aureus Newbold 305 was grown in M17 broth (Merck) at 37° C. to an optical density at 600 nm of 1.0. Cells were collected by centrifugation and washed in 20 mM Tris-HCl pH 8.0. The bacterial pellet was resuspended in milk at a density of about 10^7 cells/ml. 1 ml aliquots of this suspension were incubated in eppendorf tubes with various amounts of Nisin, Lacticin 481 and Gallidermin. Incubations were at 37° C. for 30 min. A control with no antimicrobial added was run in parallel. After incubation the samples were centrifuged to obtain the cellular pellet, which was washed 2 times with 1 ml of 20 mM Tris-HCl pH 8.0 and resuspended in 1 ml of this buffer. […] of the appropriate dilutions were plated on M17 agar plates containing 0.5% glucose and incubated overnight at 37° C. Colony forming units (cfu) were determined and percent survival was calculated relative to the control.

[2] = system: Streptococcus diacetylactis; assay: MIC plate assay; format: cell-based; settings: for MIC: S. diacetylactis
Method: (§1) The MICs (Minimal Inhibitory Concentrations) of Gallidermin against […] and Streptococcus diacetylactis were determined. S. aureus Newbold 305 is a causative agent of Mastitis, S. diacetylactis is used in the manufacture of yoghurt and cheese.
(§2) Appropriate dilutions Gallidermin (300, 100, 30, 10, 3, 1, 0.3, 0.1 µg/ml) were prepared in milk and in M17 broth (Merck) and allowed to stand at room temperature for 30 min.
(§3) Then, […] aliquots of the solutions were spotted on M17 agar plates containing 0.5% of glucose. These plates had been overlaid with softagar (0.5% agarose) seeded with 1% of an A600=1 culture of either S. aureus or S. diacetylactis. The spots were allowed to dry, then the plates were incubated at 30° C. overnight.
(§4) The MICs were determined as the lowest concentration of antimicrobial protein causing the formation of a clear halo in the bacterial lawn.

[3] = system: Staphylococcus aureus; assay: Subclinical bovine mastitis infection model, intramammary treatment; format: in vivo, cows
Source text: Preliminary experiments for evaluating the potential of Gallidermin, Epidermin or of their pharmaceutically acceptable acid addition salts in subclinical bovine mastitis
Non-infected cows are selected based on non recovery of Staphylococcus aureus from two milk samples taken one day apart from all quarters. Then, 3 quarters are inoculated via the intramammary route using a suspension of Staphylococcus aureus. The 4th quarter serves as control. During the two to four weeks after inoculation, milk samples are taken from all quarters at least 3 times to see whether Staphylococcus aureus can be recovered, and therefore whether the quarter has become infected. A quarter is defined as infected, if Staphylococcus aureus is recovered from at least two of these milk samples. Treatments are assigned randomly to infected quarters and injected via the intramammary route. Milk samples are taken daily until a minimum of 14 days after the last treatment. A quarter is considered as cured if milk samples from that quarter become negative (i.e., no Staphylococcus aureus is recovered) within 7 days after the last treatment and stay negative throughout the 14 day sampling period.
This experimental model is used to have a fixed framework on which to evaluate treatments. To work with Staphylococcus aureus has the advantage that it is the most difficult Gram positive bacterium to treat and one of the most important bacteria causing bovine mastitis. Therefore, cure rates should be expected to be lower than for other Gram positive bacteria, such as Streptococci and coagulase-negative Staphylococci.
In addition, the infection is mild as it should be for subclinical mastitis.
To optimize work load in relation to man power, 8 to 16 cows are enrolled in each trial. Trials normally last 5 weeks.

[4] = system: S. aureus Newbold 305; assay: MIC plate assay; format: cell-based, Staphylococcus aureus
Method: as §1, §2, §3, §4

Substance: Nisin
- activity against Staphylococcus aureus in the presence of milk [1]: strongly inhibited
- % survival ([1]; 3 µg/ml): 65%
- % survival ([1]; 10 µg/ml): 15%
- % survival ([1]; 30 µg/ml): 1.8%
- % survival ([1]; 100 µg/ml): 0.2%

Substance: Gallidermin (IASKFLCTPGCAKTGSFNSYCC; not fully specified; ends and bridges not checked; also: lantibiotic; UniProt P21838 31-52, looked up) [natural product produced by the microorganism Staphylococcus gallinarum; lanthionine containing peptide]
- MIC ([2]; dilutions in M17 broth): 0.3 mug/ml
- MIC ([2]; dilutions in milk): 1 mug/ml
- activity against Streptococcus diacetylactis in milk versus broth ([2]; milk and M17 broth): comparable activities
- activity against Staphylococcus aureus in the presence of milk [1]: retains a high specific activity
- % survival ([1]; 0.3 µg/ml): 29%
- % survival ([1]; 1 µg/ml): 12%
- % survival ([1]; 3 µg/ml): 1%
- % survival ([1]; 10 µg/ml): 0.01%
- % of treated group positive ([3]; 3 × 1 mg, 27 qutrs, day 0 (before treatment)): 93%
- % of treated group positive ([3]; 3 × 1 mg, 27 qutrs, day 1): 37%
- % of treated group positive ([3]; 3 × 1 mg, 27 qutrs, day 2): 11%
- % of treated group positive ([3]; 3 × 1 mg, 27 qutrs, day 3): 26%
- % of treated group positive ([3]; 3 × 1 mg, 27 qutrs, day 4): 56%
- % of treated group positive ([3]; 3 × 1 mg, 27 qutrs, day 5): 59%
- % of treated group positive ([3]; 3 × 1 mg, 27 qutrs, day 7): 56%
- % of treated group positive ([3]; 3 × 1 mg, 27 qutrs, day 8): 56%
- % of treated group positive ([3]; 3 × 1 mg, 27 qutrs, day 9): 52%
- % of treated group positive ([3]; 3 × 1 mg, 27 qutrs, day 10): 56%
- % of treated group positive ([3]; 3 × 1 mg, 27 qutrs, day 11): 56%
- % of treated group positive ([3]; 3 × 1 mg, 27 qutrs, day 12): 52%
- % of treated group positive ([3]; 3 × 1 mg, 27 qutrs, day 14): 48%
- % of treated group positive ([3]; 3 × 1 mg, 27 qutrs, day 15): 52%
- % of treated group positive ([3]; 14 × 0.1 mg, 24 qutrs, day 0 (before treatment)): 96%
- % of treated group positive ([3]; 14 × 0.1 mg, 24 qutrs, day 1): 88%
- % of treated group positive ([3]; 14 × 0.1 mg, 24 qutrs, day 2): 88%
- % of treated group positive ([3]; 14 × 0.1 mg, 24 qutrs, day 3): 71%
- % of treated group positive ([3]; 14 × 0.1 mg, 24 qutrs, day 4): 58%
- % of treated group positive ([3]; 14 × 0.1 mg, 24 qutrs, day 5): 67%
- % of treated group positive ([3]; 14 × 0.1 mg, 24 qutrs, day 7): 50%
- % of treated group positive ([3]; 14 × 0.1 mg, 24 qutrs, day 8): 67%
- % of treated group positive ([3]; 14 × 0.1 mg, 24 qutrs, day 9): 71%
- % of treated group positive ([3]; 14 × 0.1 mg, 24 qutrs, day 10): 88%
- % of treated group positive ([3]; 14 × 0.1 mg, 24 qutrs, day 11): 83%
- % of treated group positive ([3]; 14 × 0.1 mg, 24 qutrs, day 12): 88%
- % of treated group positive ([3]; 14 × 0.1 mg, 24 qutrs, day 14): 79%
- % of treated group positive ([3]; 14 × 0.1 mg, 24 qutrs, day 15): 88%
- % of treated group positive ([3]; 14 × 0.1 mg, 24 qutrs, day 16): 83%
- % of treated group positive ([3]; 14 × 0.1 mg, 24 qutrs, day 17): 83%
- % of treated group positive ([3]; 14 × 0.1 mg, 24 qutrs, day 19): 79%
- % of treated group positive ([3]; 14 × 0.1 mg, 24 qutrs, day 21): 83%
- MIC ([4]; dilutions in M17 broth): 1 mug/ml
- MIC ([4]; dilutions in milk): 0.3 mug/ml

Substance: Lacticin 481
- activity against Staphylococcus aureus in the presence of milk [1]: strongly inhibited
- % survival ([1]; 1 µg/ml): 74%
- % survival ([1]; 3 µg/ml): 51%
- % survival ([1]; 10 µg/ml): 36%
- % survival ([1]; 30 µg/ml): 30%
- % survival ([1]; 100 µg/ml): 12%
